Measurements as given in PubChem BioAssay (NCI).
Where “and” joins values, the source holds several entries; their conditions need not be identical. Equal entries are not always repeated.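 Values below derive from 48-hour exposures of cells grown in 96-well plates, with endpoints linearly interpolated between the two concentrations bracketing the appropriate inhibition level. GI50 marks 50% less growth. TGI denotes the concentration required for complete inhibition of growth.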

Key:
Test in all cases: growth of human tumour cells (NCI), 48 h
[1] = test system: OVCAR-4 ovarian
[2] = test system: U251 CNS
[3] = test system: SF-268 CNS
[4] = test system: NCI-H460 lung
[5] = test system: CCRF-CEM leukemia
[6] = test system: HOP-62 NSCLC
[7] = test system: A498 renal
[8] = test system: K-562 leukemia
[9] = test system: SK-MEL-2 melanoma
[10] = test system: NCI/ADR-RES ovarian

SMILES | TGI [1] [µM] | TGI [2] [µM] | TGI [3] [µM] | TGI [4] [µM] | TGI [5] [µM] | TGI [6] [µM] | TGI [7] | TGI [8] [µM] | TGI [9] [µM] | GI50 [1] [µM] | GI50 [2] [µM] | GI50 [3] [µM] | GI50 [10] [µM] | TGI [10] [µM] | GI50 [4] [µM] | GI50 [5] [µM] | GI50 [6] [µM] | GI50 [8] [µM] | GI50 [9] [µM] | GI50 [7] [µM]
O=c1nc(NC(c2ccccc2)(c2ccccc2)c2ccccc2)ccn1CCNCCn1ccc(NC(c2ccccc2)(c2ccccc2)c2ccccc2)nc1=O | 49 | 18.8 | 32.4 | 33.8 | > 100 | 32.5 | 78 µM | > 100 | 9.32 |  |  |  |  |  |  |  |  |  |  | 
Cc1ccc([N+](=O)[O-])cc1NC(=O)c1cccc([N+](=O)[O-])c1O |  | > 100 | 83.9 | > 100 | 83.7 | 34 | 48 µM | 96.6 | 33.9 |  |  |  |  |  |  |  |  |  |  | 
COc1cc2c(cc1OC)[C@H]1C(COC(=O)c3ccccc3)CSC(=Nc3ccccc3)N1CC2 (some centres undefined) | > 100 | > 100 | > 100 | > 100 | > 100 | > 100 | > 100 µM |  | > 100 |  |  |  |  |  |  |  |  |  |  | 
CN(C)CCNC(=O)c1cccc2[nH]c(-c3cccnc3)nc12 | 88.9 | 74.7 | 98.7 | 49.9 | > 100 | 44.1 | 30.6 µM | > 100 | 62.8 |  |  |  |  |  |  |  |  |  |  | 
Oc1ccccc1C=Nc1nc(SCc2ccccc2)nc2[nH]ncc12 | > 100 | > 100 | > 100 | > 100 | > 100 | > 100 |  | > 100 | > 100 | > 100 | 46.4 | 28.2 | 43.8 | > 100 | 36.9 | 45.7 | > 100 | 35.2 | > 100 | 
COc1ccc(/C(=N\O)c2cc(C)c(OC)c(C)c2)cc1O | > 100 | > 100 | > 100 | 15.6 | > 100 | > 100 |  |  | > 100 | 0.0279 | < 0.01 | 0.0222 | < 0.01 | > 100 | < 0.01 | 0.0185 | 0.0215 |  | 0.0328 | 
C/C=C1/CCC2c3[nH]c4ccccc4c3CCN2C1 (centres undefined) | > 100 | > 100 | > 100 | > 100 | > 100 | > 100 | > 100 µM | > 100 | > 100 |  |  |  |  |  |  |  |  |  |  | 
CN(C)C=[N+]=[N-] | > 100 | > 100 | > 100 | > 100 |  | > 100 | > 100 µM | > 100 | > 100 |  |  |  |  |  |  |  |  |  |  | 
Cc1c(C(=O)CC(=O)C(=O)Nc2ccc(Cl)cc2)[n+](=O)c2ccccc2n1[O-] | > 100 | > 100 | > 100 | > 100 | > 100 |  | > 100 µM | > 100 | > 100 |  |  |  |  |  |  |  |  |  |  | 
COc1ccc(S(=O)(=O)N/N=C/c2cc(I)cc([N+](=O)[O-])c2O)cc1OC | 70.3 | > 100 |  | > 100 | > 100 |  | > 100 µM | > 100 | 45.6 |  |  |  |  |  |  |  |  |  |  | 
C=C1C(=O)OC2C=C(CCC(C)=O)C(C)C(OC(C)=O)CC12 (centres undefined) | 27.7 | 31.1 | 32.8 | 40.6 | 12.4 |  | 30.1 µM | 44 | 27.9 |  |  |  |  |  |  |  |  |  |  | 
CCCC/C=C1\CCC(C)(CN(C)C)C1=O (centres undefined) | > 100 | > 100 | > 100 | > 100 | > 100 | > 100 | > 100 µM | > 100 | > 100 |  |  |  |  |  |  |  |  |  |  | 
N#CCCN(c1ccc(C=Nc2ccccc2Cl)cc1)S(=O)(=O)c1ccccc1 | > 100 | > 100 | > 100 | > 100 |  | > 100 | > 100 µM | > 100 | > 100 |  |  |  |  |  |  |  |  |  |  | 
CN1CC[C@]2(C)c3cc(O)ccc3CC3CCCC1C32C (some centres undefined) |  | > 100 | > 100 | > 100 | > 100 | > 100 | > 100 µM | > 100 |  |  |  |  |  |  |  |  |  |  |  | 
O=C(O)CCC(NC(=O)c1ccccc1)C(=O)O (centres undefined) | > 100 | > 100 | > 100 | > 100 | > 100 | > 100 | > 100 µM | > 100 | > 100 |  |  |  |  |  |  |  |  |  |  | 
O=C(c1ccccc1)[C@@H]1C[C@H](Sc2ccccc2)c2cc(Cl)ccc2N1 | > 100 | 60.1 | 48.4 | 91.6 |  | > 100 | 48.1 µM | 74.3 | 97.6 |  |  |  |  |  |  |  |  |  |  | 
COc1cc(C(O)C(=O)c2nc3ccc([N+](=O)[O-])cc3[nH]c2=O)ccc1O (centres undefined) | > 100 | > 100 | > 100 | > 100 | > 100 | > 100 | 97 µM | > 100 | > 100 |  |  |  |  |  |  |  |  |  |  | 
Cc1cc(NS(=O)(=O)c2ccc(NC(=O)c3ccc(Cl)c4c(Nc5ccc(S(=O)(=O)N=C(N)N)cc5)c5ccccc5nc34)cc2)no1 | > 100 | 38.9 | > 100 | > 100 | 67.2 | 97.7 | > 100 µM | > 100 |  |  |  |  |  |  |  |  |  |  |  | 
O=C1C2C=CC(C2)C(c2ccc(O)cc2)N1O (centres undefined) | > 100 | > 100 | > 100 | > 100 | > 100 | > 100 | > 100 µM | > 100 | > 100 |  |  |  |  |  |  |  |  |  |  | 
C[N+]1(C)C/C(=C\c2ccccc2)C(=O)/C(=C/c2ccccc2)C1 | > 100 | > 100 | > 100 | > 100 | > 100 | > 100 | > 100 µM | > 100 |  |  |  |  |  |  |  |  |  |  |  | 
CNC(=O)CC1NC(=O)c2csc(n2)-c2ccc(-c3nc(C4=NC(C(=O)N5CCCC5C(N)=O)CO4)cs3)nc2-c2csc(n2)-c2csc(n2)C(C(C)C)NC(=O)CNC(=O)c2csc(n2)C(C(C)C)NC(=O)c2nc1sc2C (centres undefined) | > 25 | > 25 | > 25 | > 25 | > 25 |  | 5.08 µM and > 25 µM | > 25 |  | > 25 | > 25 | > 25 | > 25 | > 25 | > 25 | > 25 |  | > 25 |  | > 25
